Test results: patent publication US20220289691A1, “5-AMINO-SUBSTITUTED PYRAZOLES AND TRIAZOLES AS PEST CONTROL AGENTS” (Bayer Aktiengesellschaft, priority 2019, published 2022)

Each compound was assayed on Spodoptera frugiperda (assay: Spodoptera frugiperda spray test). Settings: foliar, 168 h, 100 g/ha, maize leaf discs, after 7 days, read-out: efficacy (caterpillars killed).
Type: in vivo
Procedure: Spodoptera frugiperda—Spray Test Solvent: 78.0 parts by weight of acetone • • 1.5 parts by weight of dimethylformamide Emulsifier: alkylaryl polyglycol ether
(§1) To produce a suitable active compound formulation, 1 part by weight of active compound is dissolved using the stated parts by weight of solvent and made up with water containing an emulsifier concentration of 1000 ppm until the desired concentration is attained. To produce further test concentrations, the formulation is diluted with emulsifier-containing water.
Leaf discs of maize (Zea mays) are sprayed with an active compound formulation of the desired concentration and, after drying, populated with caterpillars of the fall armyworm (Spodoptera frugiperda).
After 7 days, the efficacy in % is determined. 100% means that all the caterpillars have been killed; 0% means that no caterpillar has been killed.
Work on `CC(=O)Nc1nc(-c2ccc(C=NN=C3SCC(=O)N3c3ccccc3C(C)C)cc2)nn1-c1ccc(OC(F)(F)C(F)(F)F)cc1` [Compound I-099] yielded a pest or weed control at 100 g/ha of 100%. Work on `CC(=O)Nc1nc(-c2ccc(C=NNC(=S)Nc3ccccc3C(C)C)cc2)nn1-c1ccc(OC(F)(F)C(F)(F)F)cc1` [Compound I-096] yielded a pest or weed control at 100 g/ha of 100%. Work on `COc1ccc(C(C)C)c(N2C(=O)CSC2=NN=Cc2ccc(-c3nc(NCCC#N)n(-c4ccc(OC(F)(F)C(F)(F)F)cc4)n3)cc2)c1` [Compound I-142] yielded a pest or weed control at 100 g/ha of 100%. For `CNc1nc(-c2ccc(C=NN=C3SCC(=O)N3c3ccccc3C(C)C)cc2C)nn1-c1ccc(OC(F)(F)F)cc1` [Compound I-121], the pest or weed control at 100 g/ha was 100%. `CCC(=O)Nc1nc(-c2ccc(NC(=O)N=C3SCC(=O)N3c3ccccc3C(C)C)cc2)nn1-c1ccc(OC(F)(F)F)cc1` [Compound I-036] was tested, and the pest or weed control at 100 g/ha was 100%. Compound `CC(C)c1ccccc1N1C(=O)CSC1=NN=Cc1ccc(-c2nc(NC3CSC3)n(-c3ccc(OC(F)(F)C(F)(F)F)cc3)n2)cc1` [Compound I-101] has a pest or weed control at 100 g/ha of 83%. In the case of `CC(=O)Nc1nc(-c2ccc(NC(=O)N=C3SCC(=O)N3c3ccccc3C(C)C)cc2)nn1-c1ccc(OC(F)(F)F)cc1` [Compound I-034], the pest or weed control at 100 g/ha is reported as 100%. For `CC(C)c1ccccc1N1C(=O)CSC1=NN=Cc1ccc(-c2nc(NC3CC3)n(-c3ccc(OC(F)(F)F)cc3)n2)cc1` [Compound I-058], the pest or weed control at 100 g/ha was 100%. In the case of `CC(C)c1ccccc1N1C(=O)CSC1=NC(=O)Nc1ccc(-c2nc(-n3ccnc3)n(-c3ccc(OC(F)(F)F)cc3)n2)cc1` [Compound I-031], the pest or weed control at 100 g/ha is reported as 100%. For `CC(C)c1ccccc1NC(=S)NN=Cc1ccc(-c2nc(NCCO)n(-c3ccc(OC(F)(F)F)cc3)n2)cc1` [Compound I-078], the pest or weed control at 100 g/ha was 100%. `COCCCNc1nc(-c2ccc(C=NNC(=S)Nc3ccccc3C(C)C)cc2)nn1-c1ccc(OC(F)(F)F)cc1` [Compound I-073] was tested, and the pest or weed control at 100 g/ha was 100%. Compound `CC(C)c1ccccc1NC(=S)NN=Cc1ccc(-c2nc(/N=C/N(C)C)n(-c3ccc(OC(F)(F)F)cc3)n2)cc1` [Compound I-061] has a pest or weed control at 100 g/ha of 100%. In the case of `CC(C)c1ccccc1NC(=S)NN=Cc1ccc(-c2nc(NCCO)n(-c3ccc(OC(F)(F)C(F)(F)F)cc3)n2)cc1` [Compound I-135], the pest or weed control at 100 g/ha is reported as 100%. In the case of `CNc1nc(-c2ccc(C=NNC(=S)Nc3cc(OC)ccc3C(C)C)cc2)nn1-c1ccc(OC(F)(F)F)cc1` [Compound I-084], the pest or weed control at 100 g/ha is reported as 100%. `COC(CCNc1nc(-c2ccc(C=NNC(=S)Nc3ccccc3C(C)C)cc2)nn1-c1ccc(OC(F)(F)F)cc1)OC` [Compound I-082] showed a pest or weed control at 100 g/ha of 100%. In the case of `CCS(=O)(=O)Nc1nc(-c2ccc(C=NNC(=S)Nc3ccccc3C(C)C)cc2)nn1-c1ccc(OC(F)(F)F)cc1` [Compound I-022], the pest or weed control at 100 g/ha is reported as 100%. `CNc1nc(-c2ccc(C=NNC(=S)Nc3ccccc3C(C)C)cc2C#N)nn1-c1ccc(OC(F)(F)F)cc1` [Compound I-123] showed a pest or weed control at 100 g/ha of 100%. With `CC(C)c1ccccc1NC(=S)NN=Cc1ccc(-c2nc(NC3COC3)n(-c3ccc(OC(F)(F)F)cc3)n2)cc1` [Compound I-049] the pest or weed control at 100 g/ha was 100%. Compound `CC(C)c1ccccc1N1C(=O)CSC1=NC(=O)Nc1ccc(-c2nc(NC3CCC3)n(-c3ccc(OC(F)(F)F)cc3)n2)cc1` [Compound I-041] has a pest or weed control at 100 g/ha of 100%. In the case of `CC(C)c1ccccc1N1C(=O)CSC1=NC(=O)Nc1ccc(-c2nc(NC3CC3)n(-c3ccc(OC(F)(F)F)cc3)n2)cc1` [Compound I-029], the pest or weed control at 100 g/ha is reported as 100%. Work on `CC(C)c1ccccc1N1C(=O)CSC1=NN=Cc1ccc(-c2nc(NCCO)n(-c3ccc(OC(F)(F)C(F)(F)F)cc3)n2)cc1` [Compound I-138] yielded a pest or weed control at 100 g/ha of 100%. For `CC(C)c1ccccc1N1C(=O)CSC1=NN=Cc1ccc(-c2nc(NCCC#N)n(-c3ccc(OC(F)(F)F)cc3)n2)cc1` [Compound I-092], the pest or weed control at 100 g/ha was 100%. `CNc1nc(-c2ccc(C=NN=C3SCC(=O)N3c3ccccc3C(C)C)c(Cl)c2)nn1-c1ccc(OC(F)(F)F)cc1` [Compound I-115] showed a pest or weed control at 100 g/ha of 100%.

What follows are compounds tested on Diabrotica balteata (assay: Diabrotica balteata spray test). Settings: 168 h, 100 g/ha (=32 μg/cavity), beetle larvae on wheat, after 7 days, read-out: efficacy (wheat plant growth).
Type: in vivo
Procedure: Diabrotica balteata—Spray Test Solvent: 78 parts by weight of acetone • • 1.5 parts by weight of dimethylformamide Emulsifier: alkylaryl polyglycol ether
as §1
Pre-swollen wheat grains (Triticum aestivum) are incubated in a multiwell plate filled with agar and a little water for one day (5 seed grains per cavity). The germinated wheat grains are sprayed with an active compound formulation of the desired concentration. Subsequently, each cavity is infected with 10-20 beetle larvae of Diabrotica balteata.
After 7 days, the efficacy in % is determined. 100% means that all wheat plants have grown as in the untreated, uninfected control; 0% means that no wheat plant has grown.
`CC(=O)Nc1nc(-c2ccc(C=NN=C3SCC(=O)N3c3ccccc3C(C)C)cc2)nn1-c1ccc(OC(F)(F)C(F)(F)F)cc1` [Compound I-099] showed a pest or weed control at 100 g/ha of 80%. Compound `CC(=O)Nc1nc(-c2ccc(C=NNC(=S)Nc3ccccc3C(C)C)cc2)nn1-c1ccc(OC(F)(F)C(F)(F)F)cc1` [Compound I-096] has a pest or weed control at 100 g/ha of 100%. `CCC(=O)Nc1nc(-c2ccc(NC(=O)N=C3SCC(=O)N3c3ccccc3C(C)C)cc2)nn1-c1ccc(OC(F)(F)F)cc1` [Compound I-036] gave a pest or weed control at 100 g/ha of 80%. For `CC(=O)Nc1nc(-c2ccc(NC(=O)N=C3SCC(=O)N3c3ccccc3C(C)C)cc2)nn1-c1ccc(OC(F)(F)F)cc1` [Compound I-034], the pest or weed control at 100 g/ha was 100%. Work on `CC(C)c1ccccc1N1C(=O)CSC1=NN=Cc1ccc(-c2nc(NC3CC3)n(-c3ccc(OC(F)(F)F)cc3)n2)cc1` [Compound I-058] yielded a pest or weed control at 100 g/ha of 100%. Work on `COCCCNc1nc(-c2ccc(C=NNC(=S)Nc3ccccc3C(C)C)cc2)nn1-c1ccc(OC(F)(F)F)cc1` [Compound I-073] yielded a pest or weed control at 100 g/ha of 100%. With `CC(C)c1ccccc1NC(=S)NN=Cc1ccc(-c2nc(/N=C/N(C)C)n(-c3ccc(OC(F)(F)F)cc3)n2)cc1` [Compound I-061] the pest or weed control at 100 g/ha was 80%. `CNc1nc(-c2ccc(C=NNC(=S)Nc3cc(OC)ccc3C(C)C)cc2)nn1-c1ccc(OC(F)(F)F)cc1` [Compound I-084] was tested, and the pest or weed control at 100 g/ha was 100%. Work on `COC(CCNc1nc(-c2ccc(C=NNC(=S)Nc3ccccc3C(C)C)cc2)nn1-c1ccc(OC(F)(F)F)cc1)OC` [Compound I-082] yielded a pest or weed control at 100 g/ha of 100%. `CNc1nc(-c2ccc(C=NNC(=S)Nc3ccccc3C(C)C)cc2C#N)nn1-c1ccc(OC(F)(F)F)cc1` [Compound I-123] showed a pest or weed control at 100 g/ha of 100%. `CC(C)c1ccccc1NC(=S)NN=Cc1ccc(-c2nc(NC3COC3)n(-c3ccc(OC(F)(F)F)cc3)n2)cc1` [Compound I-049] showed a pest or weed control at 100 g/ha of 100%. With `CC(C)c1ccccc1N1C(=O)CSC1=NC(=O)Nc1ccc(-c2nc(NC3CCC3)n(-c3ccc(OC(F)(F)F)cc3)n2)cc1` [Compound I-041] the pest or weed control at 100 g/ha was 100%.

Same assay, conditions: 168 h, 125 g/ha (=40 μg/cavity), beetle larvae on wheat, after 7 days, read-out: efficacy (wheat plant growth)
For `CCS(=O)(=O)Nc1nc(-c2ccc(C=NNC(=S)Nc3ccccc3C(C)C)cc2)nn1-c1ccc(OC(F)(F)F)cc1` [Compound I-022], the pest or weed control at 125 g/ha was 100%. Compound `CC(C)c1ccccc1N1C(=O)CSC1=NC(=O)Nc1ccc(-c2nc(NC3CC3)n(-c3ccc(OC(F)(F)F)cc3)n2)cc1` [Compound I-029] has a pest or weed control at 125 g/ha of 100%.

Same assay, conditions: 168 h, 500 g/ha (=160 μg/cavity), beetle larvae on wheat, after 7 days, read-out: efficacy (wheat plant growth)
With `CCC(=O)Nc1nc(-c2ccc(NC(=O)N=C3SCC(=O)N3c3ccccc3C(C)C)cc2)nn1-c1ccc(OC(F)(F)F)cc1` [Compound I-036] the pest or weed control at 500 g/ha was 100%. In the case of `CC(=O)Nc1nc(-c2ccc(NC(=O)N=C3SCC(=O)N3c3ccccc3C(C)C)cc2)nn1-c1ccc(OC(F)(F)F)cc1` [Compound I-034], the pest or weed control at 500 g/ha is reported as 100%. In the case of `CC(C)c1ccccc1N1C(=O)CSC1=NN=Cc1ccc(-c2nc(NC3CC3)n(-c3ccc(OC(F)(F)F)cc3)n2)cc1` [Compound I-058], the pest or weed control at 500 g/ha is reported as 100%. In the case of `CC(C)c1ccccc1NC(=S)NN=Cc1ccc(-c2nc(/N=C/N(C)C)n(-c3ccc(OC(F)(F)F)cc3)n2)cc1` [Compound I-061], the pest or weed control at 500 g/ha is reported as 80%. `CCS(=O)(=O)Nc1nc(-c2ccc(C=NNC(=S)Nc3ccccc3C(C)C)cc2)nn1-c1ccc(OC(F)(F)F)cc1` [Compound I-022] gave a pest or weed control at 500 g/ha of 100%. For `CC(C)c1ccccc1NC(=S)NN=Cc1ccc(-c2nc(NC3COC3)n(-c3ccc(OC(F)(F)F)cc3)n2)cc1` [Compound I-049], the pest or weed control at 500 g/ha was 100%. With `CC(C)c1ccccc1N1C(=O)CSC1=NC(=O)Nc1ccc(-c2nc(NC3CCC3)n(-c3ccc(OC(F)(F)F)cc3)n2)cc1` [Compound I-041] the pest or weed control at 500 g/ha was 100%. With `CC(C)c1ccccc1N1C(=O)CSC1=NC(=O)Nc1ccc(-c2nc(NC3CC3)n(-c3ccc(OC(F)(F)F)cc3)n2)cc1` [Compound I-029] the pest or weed control at 500 g/ha was 100%.
